Here are results for four compounds from paper PMC5625163, “Incompatibility of chemical protein synthesis inhibitors with accurate measurement of extended protein degradation rates” (Pharmacology Research & Perspectives, 2017).

The subject of data set [1] is HepG2 cells. The data set is described as follows: [3H]-leucine incorporation protein synthesis inhibition assay in HepG2 cells. The class given is cell-based. The following applies: Homo sapiens, read-out: IC50 protein synthesis inhibition.
Data set [2] has as its system primary rat hepatocytes (PRH). The data set can be described thus: [3H]-leucine incorporation protein synthesis inhibition assay in primary rat hepatocytes. The class given is cell-based. The following applies: Hepatocyte, 72 h, read-out: IC50 protein synthesis inhibition.
A short description of data set [3]: Standard MTT cell viability assay in HepG2 cells. The class given is cell-based, human. The following applies: human. As for the experimental part: (§1) Standard MTT assays were performed on HepG2 and PRH cells to measure cell viability. 2 × 10^4 cells per well of HepG2 were seeded into 96‐well plates in DMEM with 10% FBS and left overnight in a 37°C humidified incubator to allow cells to adhere to the plate. PRH were seeded in collagen coated 96‐well plates at a density of 2 × 10^4 cells per well. Old media was removed and replaced with 0–300 μmol/L of protein synthesis inhibitors and incubated for 72 h. A vehicle control and control with no drug was included. A quantity of 20 μL of 5 mg/mL […] in HBSS was added to each well and incubated for 2 h. A quantity of 100 μL lysis buffer (50% v/v dimethylformahyde and 20% v/v sodium dodecyl sulphate) was added to each well and the plate was incubated overnight at 37°C. The absorbance was quantified at 570 nm by a Tecan GENios micoplate reader (Germany).
(§2) Cycloheximide was incubated at 0–300 μmol/L and emetine at 0–30 μmol/L for both leucine incorporation and MTT assays.
(§3) The IC50 (concentration causing 50% protein synthesis inhibition), CC50 (concentration causing 50% cell viability), and CC10 (concentration causing 90% cell viability) were calculated by nonlinear regression of drug concentration versus leucine incorporation and MTT concentration–response graphs, respectively, using Graphpad Prism 3 software. The IC50 and CC50 values derived from the single inhibitor analyses were used for subsequent fixed‐ratio isobologram two‐drug combination analyses.
For orientation: Formazan colour is commonly taken as a measure of viable cells.

The subject of data set [4] is HepG2 cells. The data set is described as follows: Standard MTT cell viability assay in HepG2 cells. The class given is cell-based, human. The following applies: 72 h. The procedure:
as §1, §2, §3

Data set [5] can be described thus: Standard MTT cell viability assay in primary rat hepatocytes. The following applies: male, Sprague-Dawley. The class given is cell-based. The procedure: Primary rat hepatocytes (PRH) were purchased from Invitrogen (Paisley, UK), isolated from male Sprague–Dawley rats at 9 weeks old (Lot. RS745). Cryopreserved PRH were thawed in a 37°C water bath for approximately 2 min until contents were around 90% thawed. Once thawed, the hepatocytes were added to 50 mL of prewarmed plating media (William's E media without phenol red supplemented with 5% FBS, 1 μmol/L dexamethasone, 1% solution of penicillin/streptomycin, 4 μg/mL bovine insulin, 2 mmol/L GlutaMAX™, and 15 mmol/L HEPES (CHRM® supplement A), and centrifuged for 3 min at 55g at 18°C and the supernatant fraction discarded. The hepatocytes were then resuspended in plating media at 1 × 10^6 cells per ml density.
as §1, §2, §3

Data set [6] has as its system HeLa cells. The settings on record: cited from earlier work.
Data set [7] deals with Huh‐7 cells. The following applies: at 10 μmol/L in Huh‐7 cells; ref Yin Low et al. (2009); cited from earlier work.
For data set [8], the system named is HeLa cells. Also noted: method as in Dudani et al. (1988). The settings on record: at 0.9 mmol/L in HeLa cells; ref Dudani et al. (1988); cited from earlier work.
[9] abbreviates: HepG2 cells, 72 h, single inhibitor, MTT, mean ± SD, read-out: CC50 cytotoxicity (50% cell viability).
[10] abbreviates: HepG2 cells, single inhibitor, MTT.
Setting [11] is: PRH, 72 h, single inhibitor, MTT, mean ± SD, read-out: CC50 cytotoxicity (50% cell viability).

Counter-ions that a name gives are not always drawn. Like-named read-outs stand apart in the source and are kept apart here. Starred links: 1 amine or outer side, 2 acyl side, 3 side chain; linkers in the order of their positions; H or OH if unused. Positions of bridges follow the written chain, without caps; N, C: chain ends. Non-standard residues stand in square brackets, D forms with d. Residues, ends and D or L forms follow the SMILES beside them. Chains are numbered I, II in the order given. Actinocin(9to1) = Cc1c2oc3c(C)ccc(C(=O)[*:1])c3nc-2c(C(=O)[*:2])c(N)c1=O; NMeV = CN[C@H](C(=O)O)C(C)C; Sar = CNCC(=O)O

As a reminder, the IC50 is the concentration that inhibits the measured activity by half. The term CC50 denotes the concentration at which the toxic effect on the cells reaches its halfway point.

Take `Cc1c2oc3c(C)ccc(C(=O)N[C@@H]4C(=O)N[C@H](C(C)C)C(=O)N5CCC[C@H]5C(=O)N(C)CC(=O)N(C)[C@@H](C(C)C)C(=O)O[C@@H]4C)c3nc-2c(C(=O)N[C@@H]2C(=O)N[C@H](C(C)C)C(=O)N3CCC[C@H]3C(=O)N(C)CC(=O)N(C)[C@@H](C(C)C)C(=O)O[C@@H]2C)c(N)c1=O` [actinomycin D] (I: T[dV]P[Sar][NMeV] / II: T[dV]P[Sar][NMeV]; ester I:1-I:C, II:1-II:C; linker I:N-II:N via Actinocin(9to1)): the IC50 in data set [1] (HepG2, 72 h) turned out to be 39 ± 7.4 nM; in data set [2] it was 1.7 ± 1.8 nM. In addition, the half-maximal cytotoxic concentration (CC50) at 72 h came to 6.2 ± 7.3 nM in data set [3] (setting [9]) and 0.98 ± 1.8 nM in data set [5] (setting [11]). Moreover, the “CC10 (90% cell viability concentration)” value in data set [4] (setting [10]) was 0.17 nM. Also, the “concentration sufficient to cause cell toxicity” value in data set [6] (HeLa cells, ref Sawicki and Godman (1971)) was 80 nM.
With `C[C@@H]1C[C@@H]([C@H](O)CC2CC(=O)NC(=O)C2)C(=O)[C@@H](C)C1` [cycloheximide], the IC50 in data set [1] (HepG2, 72 h) was 6600 ± 2500 nM; in data set [2], 290 ± 90 nM. Further, the cytotoxic concentration (CC50) at 72 h was 570 ± 510 nM in data set [3] (setting [9]) and 680 ± 1300 nM in data set [5] (setting [11]). The “CC10 (90% cell viability concentration)” value in data set [4] (setting [10]) stood at 24 nM.
As to `CC[C@H]1CN2CCc3cc(OC)c(OC)cc3[C@@H]2C[C@@H]1C[C@H]1NCCc2cc(OC)c(OC)cc21` [emetine, emetine dihydrochloride hydrate], the IC50 in data set [1] (HepG2, 72 h) stood at 2200 ± 1400 nM; in data set [2], 620 ± 920 nM. Moreover, the results for the CC50 at 72 h in data set [3] (setting [9]) and in data set [5] (setting [11]) were 81 ± 9 nM and 180 nM, respectively. Moreover, the “CC10 (90% cell viability concentration)” value in data set [4] (setting [10]) is 7.0 nM. Further, the cell viability result in data set [7] is on record as “over 90%”.
Take `COc1ccc(C[C@H](N)C(=O)N[C@H]2[C@@H](O)[C@H](n3cnc4c(N(C)C)ncnc43)O[C@@H]2CO)cc1` [puromycin, puromycin dihydrochloride]: the IC50 came out at 1600 ± 1200 nM in data set [1] (HepG2 cells, 72 h, single inhibitor, mean ± SD) and 2000 ± 2000 nM in data set [2] (PRH, single inhibitor, mean ± SD). For the same compound, the 50% cytotoxic concentration (CC50) at 72 h is 1300 ± 64 nM in data set [3] and 1600 ± 1000 nM in data set [5]. In data set [4] (human), the “CC10 (90% cell viability concentration)” value came out at 110 nM. For the same compound, the concentration causing cytotoxicity in data set [6] (human cell lines, including HeLa cells, ref Dudani et al. (1988)) is 900 nM. In addition, in data set [8], the protein synthesis inhibition is 79.6%.
